Measured values taken from patent publication US12370161B2, “Composition for treating atopy or pruritus comprising N-acetyl or N-acyl amino acid” (STEMDR INC., priority 2017, dated 2025).

Legend:
[1] = system: pruritus caused by atopic contact dermatitis; test: Pruritus inhibition test, pruritus induced with DNFB; format: in vivo, mouse; details: 0.1% in physiological saline applied once onto right ear; pruritus measured for 1 hour
Procedure: In order to investigate whether L-form, LID-form and D-form N-acetylalanine, N-acetylarginine, N-acetylthreonine and N-acetyltryptophan inhibit pruritus caused by atopic contact dermatitis, 20 μL of 0.1% 2,4-dinitrofluorobenzene (DNFB) solution and 0.1% N-acetylamino acid dissolved in physiological saline were applied once onto the right ear 10 minutes after the final treatment (day 27) with 2,4-dinitrofluorobenzene (DNFB) (Physiological saline was applied to a negative control group), and then pruritus was measured for 1 hour. FIG. 7 compares the pruritus-relieving effect of L-form N-acetylalanine, N-acetylthreonine, N-acetylarginine and N-acetyltryptophan with D/L-form and D-form N-acetylalanine and N-acetyltryptophan at 0.1% after the induction of pruritus with DNFB.

[2] = system: atopic dermatitis-induced Nc/Nga mouse; test: SCORAD clinical skin score, DNFB-induced atopic dermatitis in Nc/Nga mouse; format: in vivo; design: key to Mouse 1 Erythema / Mouse 2 Eschar / Mouse 2 Dryness / Mouse 2 Abrasion / Mouse 1 Edema / Mouse 1 Eschar / Mouse 1 Dryness / Mouse 1 Abrasion / Mouse 2 Erythema / Mouse 2 Edema / Mouse 3 Erythema / Mouse 3 Edema / Mouse 3 Eschar / Mouse 3 Dryness / Mouse 3 Abrasion: 0 = no symptom, 1 = mild, 2 = moderate, 3 = severe; key to Mouse 1 Sum / Mean (of Sum, SCORAD) / Mouse 3 Sum: sum of individual symptom scores, each graded 0-3; details: for dermatitis-treating effect of L-, L/D- and D-form (FIG. 6): Nc/Nga atopic dermatitis model, 0.1%; for Mouse 1 Erythema: DNFB Nc/Nga (FIG. 8), 0.1% in PBS, 200 μL on back skin daily day 15-21; for Mouse 1 Erythema / Mouse 1 Abrasion / Mouse 1 Dryness / Mouse 1 Edema / Mouse 1 Eschar / Mouse 1 Lichenification / Mouse 2 Abrasion / Mouse 2 Dryness / Mouse 2 Edema / Mouse 2 Erythema / Mouse 2 Eschar / Mouse 2 Lichenification / Mouse 3 Abrasion / Mouse 3 Dryness / Mouse 3 Edema / Mouse 3 Erythema / Mouse 3 Eschar / Mouse 3 Lichenification: graded per Example 4; for Mouse 1 Abrasion / Mouse 1 Dryness / Mouse 1 Edema / Mouse 1 Eschar / Mouse 1 Lichenification / Mouse 1 Sum / Mouse 2 Abrasion / Mouse 2 Dryness / Mouse 2 Edema / Mouse 2 Erythema / Mouse 2 Eschar / Mouse 2 Lichenification / Mouse 2 Sum / Mouse 3 Abrasion / Mouse 3 Dryness / Mouse 3 Edema / Mouse 3 Erythema / Mouse 3 Eschar / Mouse 3 Lichenification / Mouse 3 Sum / Mean (of Sum, SCORAD): DNFB Nc/Nga, 0.1% topical day 15-21; for Mouse 1 Sum / Mouse 2 Sum / Mouse 3 Sum: sum of individual scores; for Mean (of Sum, SCORAD): mean of 3 mice
Procedure: In order to establish a model more similar to an atopy model than that of the Balb/c mice, atopy was induced in Nc/Nga mouse mice. Specifically, after inducing DNFB sensitization by applying 100 μL of 0.35% 2,4-dinitrofluorobenzene (DNFB) in acetone/olive oil (3:1) on the shaved back skin, dermatitis was induced by applying 100 μL of 0.15% DNFB for 4-20 days, every other day. Control mice were treated with a vehicle of the same volume (FIG. 1B).
After dissolving an N-acetyl or N-acylamino acid in phosphate-buffered saline to 0.1%, 200 μL of the solution was applied on the back skin of the mice every day, from day 22 until day 28 for the Balb/c atopic dermatitis model, and from day 15 until day 21 for the Nc/Nga atopic dermatitis model. When the N-acetyl or N-acylamino acid was treated together with DNFB, they were treated with 12-hour intervals in order to avoid direct reaction between the DNFB and the N-acetyl or N-acylamino acid. A non-treated group and a 2,4-dinitrofluorobenzene (DNFB) group were treated with phosphate-buffered saline of the same volume (FIGS. 1A-1B). As the N-acetylamino acid, products purchased from Sigma-Aldrich (USA), MP scientific (USA), TCI (Tokyo Chemical Industry, Japan), Santacruz (USA), etc. were used without purification.
The degree of skin soothing and the severity of atopic dermatitis were evaluated macroscopically according to the previously established SCORAD (SCORing Atopic Dermatitis) method (Oranje et al., 2007). The degree of symptoms such as edema, erythema, eschar, dryness, abrasion, lichenification, etc. was graded from 0 to 3 (0, no symptom; 1, mild; 2, moderate; 3, severe). The overall dermatitis score was determined from the sum of all individual scores (Table 1). The assessment was performed by an investigator who was blind to the grouping of the mice.
Skin-soothing effect and the severity of dermatitis were evaluated for the acyl derivatives of tryptophan synthesized in Example 9, the acyl derivative of alanine synthesized in Example 10 and N-palmitoylalanine (purchased from Santacruz (USA)) according to the method of Example 4 (Table 2)

Compound	Mouse 1 Erythema [2]	Mouse 1 Abrasion [2]	Mouse 1 Dryness [2]	Mouse 1 Edema [2]	Mouse 1 Eschar [2]	Mouse 1 Lichenification [2]	Mouse 1 Sum [2]	Mouse 2 Abrasion [2]	Mouse 2 Dryness [2]	Mouse 2 Edema [2]	Mouse 2 Erythema [2]	Mouse 2 Eschar [2]	Mouse 2 Lichenification [2]	Mouse 2 Sum [2]	Mouse 3 Abrasion [2]	Mouse 3 Dryness [2]	Mouse 3 Edema [2]	Mouse 3 Erythema [2]	Mouse 3 Eschar [2]	Mouse 3 Lichenification [2]	other results
CC(=O)N[C@@H](C)C(=O)O [D/L-form N-acetylalanine, N-acetylalanine, reference compound]	–	–	–	–	–	–	–	–	–	–	–	–	–	–	–	–	–	–	–	–	pruritus-relieving effect (FIG. 7) [1]: little effect; dermatitis-treating effect of L-, L/D- and D-form (FIG. 6) ([2]; listed as LID-form N-acetylalanine): no effect
CCCCCCCCCCCCCCCC(=O)N[C@@H](Cc1c[nH]c2ccccc12)C(=O)O [N-palmitoyl-L-tryptophan]	1	1	1	2	1	2	6	2	2	1	2	2	1	10	1	2	2	2	1	2	Mouse 3 Sum [2]: 10; Mean (of Sum, SCORAD) [2]: 8.7
CC(=O)N[C@@H](Cc1c[nH]c2ccccc12)C(=O)O [D/L-form N-acetyltryptophan, N-acetyltryptophan, reference compound]	–	–	–	–	–	–	–	–	–	–	–	–	–	–	–	–	–	–	–	–	pruritus-relieving effect (FIG. 7) [1]: little effect; dermatitis-treating effect of L-, L/D- and D-form (FIG. 6) ([2]; listed as LID-form N-acetyltryptophan): no effect
CCCCCCCCCCCCCCCCCC(=O)N[C@@H](Cc1c[nH]c2ccccc12)C(=O)O [N-stearyl-L-tryptophan, N-stearoyl-L-tryptophan]	2	2	2	2	2	2	12	2	2	2	2	1	1	10	2	1	2	2	2	2	Mouse 3 Sum [2]: 11; Mean (of Sum, SCORAD) [2]: 11
CCCCCCCC/C=C\CCCCCCCCCCCC(=O)N[C@@H](Cc1c[nH]c2ccccc12)C(=O)O [N-(Z)-docos-13-enoyl L-tryptophan, N—(Z)-docos-13-enoyl-L-tryptophan]	1	1	1	1	1	0	5	1	2	1	1	2	0	7	1	2	1	2	2	1	Mouse 3 Sum [2]: 9; Mean (of Sum, SCORAD) [2]: 7
CC(=O)N[C@@H](CCC(=O)N[C@@H](C)C(=O)O)C(=O)O [N-acetyly-glutammyl-L-alanine, N-acetyl-γ-glutammyl-L-alanine]	0	1	0	1	0	2	4	1	1	1	1	2	2	8	1	0	1	1	1	2	Mouse 3 Sum [2]: 6; Mean (of Sum, SCORAD) [2]: 6
